Test results: patent publication US20080200334A1, “Method For Enhancing The Effectiveness Of Ethaboxam” (BASF Aktiengesellschaft, priority 2004, published 2008)
Read-outs that look alike come from different tables or passages of the source.

Experiments:
Pyricularia oryzae = assay type: cell-based
Septoria tritici = test: Use Example 6: Septoria speckled leaf blotch, microtiter test; assay type: cell-based; settings: day 7 after inoculation, 405 nm
Botrytis cinerea = test: Use Example 4: gray mold, microtiter test; assay type: cell-based; settings: day 7 after inoculation, 405 nm
Plasmopara viticola [1] = test: Use Example 1: peronospora of grapevines, greenhouse, 7 days of protective application; assay type: in vivo; settings: grapevine leaves sprayed 7 days before inoculation
Method: The active compounds were prepared jointly or separately as a stock solution with 25 mg of active compound which was made up to 10 ml using a mixture of acetone and/or DMSO and the emulsifier Uniperol® EL (wetting agent having emulsifying and dispersing action based on ethoxylated alkylphenols) in a volume ratio of solvent/emulsifier of 99 to 1. The mixture was then made up with water to 100 ml. This stock solution was diluted with the solvent/emulsifier/water mixture described to the concentration of active compounds stated below.
The active compounds pyraclostrobin, famoxadone, fluazinam and zoxamide were used as commercially available formulations.
The visually determined percentages of infected leaf areas were converted into efficacies in % of the untreated control:
The efficacy (E) is calculated as follows using Abbot's formula:
An efficacy of 0 means that the infection level of the treated plants corresponds to that of the untreated control plants; an efficacy of 100 means that the treated plants were not infected.
The expected efficacies of mixtures of active compounds were determined using Colby's formula (Colby, S. R. “Calculating synergistic and antagonistic responses of herbicide combinations”, Weeds, 15, 20-22, 1967) and compared with the observed efficacies.
E=x+y−x·y/100 • E expected efficacy, expressed in % of the untreated control, when using the mixture of the active compounds A and B at the concentrations a and b • x efficacy, expressed in % of the untreated control, when using the active compound A at the concentration a • y efficacy, expressed in % of the untreated control, when using the active compound B at the concentration b
Effectiveness Against Peronospora of Grapevines Caused by Plasmopara viticola at 7 days of Protective Application
Leaves of potted vines were sprayed to runoff point with an aqueous suspension having the concentration of active compound given below. To be able to assess the persistency of the substances, the plants were, after the spray coating had dried on, placed in a greenhouse for 7 days. Only then were the leaves inoculated with an aqueous zoospore suspension of Plasmopara viticola. The grapevines were then initially placed in a water-vapor-saturated chamber at 24° C. for 48 hours and then in a greenhouse at temperatures between 20 and 30° C. for 5 days. After this period of time the plants were, to promote sporangiophore eruption, again placed in a humid chamber for 16 hours. The extent of the development of the infection on the undersides of the leaves was then determined visually.

Phytophthora infestans = assay type: in vivo; settings: tomato leaves sprayed 3 days before inoculation, rated after 6 days
Plasmopara viticola [2] = assay type: in vivo

## O=C1c2ccccc2C(=O)N1SC(Cl)(Cl)Cl [folpet II-10, folpet]
Pyricularia oryzae; 1 ppm
  Observed effect (%): 20%
Septoria tritici; 4 ppm
  Observed effect (%): 54%
Botrytis cinerea; 1 ppm
  Observed effect (%): 38%

## O=[N+]([O-])c1cc(C(F)(F)F)c(Cl)c([N+](=O)[O-])c1Nc1ncc(C(F)(F)F)cc1Cl [fluazinam II-4, 3-chloro-N-[3-chloro-2,6-dinitro-4-(trifluoromethyl)phenyl]-5-(trifluoromethyl)-2-pyridinamine]
Plasmopara viticola [1]; 63 ppm
  Observed effect (%): 22%

## zinc ammoniate ethylenebis(dithiocarbamate) [metiram II-14]
Septoria tritici; 4 ppm
  Observed effect (%): 19%

## CCNC(=O)NC(=O)/C(C#N)=N/OC [cymoxanil II-3, cymoxanil]
Plasmopara viticola [1]; 4 ppm
  Observed effect (%): 0%

## COc1ccc(C(=CC(=O)N2CCOCC2)c2ccc(F)cc2)cc1OC [flumorph II-8, 3-(4-fluorophenyl)-3-(3,4-dimethoxyphenyl)-1-morpholin-4-ylpropenone]
Pyricularia oryzae; 16 ppm
  Observed effect (%): 11%
Botrytis cinerea; 63 ppm
  Observed effect (%): 16%

## COc1ccc(C(=CC(=O)N2CCOCC2)c2ccc(Cl)cc2)cc1OC [dimethomorph II-2, 3-(4-chlorophenyl)-3-(3,4-dimethoxyphenyl)-1-morpholin-4-ylpropenone]
Pyricularia oryzae; 4 ppm
  Observed effect (%): 6%
Botrytis cinerea; 63 ppm
  Observed effect (%): 9%
Plasmopara viticola [1]; 4 ppm
  Observed effect (%): 0%
Phytophthora infestans; 4 ppm
  Observed effect (%): 0%
Phytophthora infestans; 16 ppm
  Observed effect (%): 22%

## manganese ethylenebis(dithiocarbamate) zinc complex [mancozeb II-9]
Septoria tritici; 1 ppm
  Observed effect (%): 29%
Botrytis cinerea; 4 ppm
  Observed effect (%): 30%

## manganese ethylenebis(dithiocarbamate) [maneb II-5]
Plasmopara viticola [2]; in vivo
  Observed effect (%): 0%

## N#Cc1sc2c(=O)c3ccccc3c(=O)c=2sc1C#N [dithianon II-15, 5,10-dioxo-5,10-dihydronaphtho[2,3-b][1,4]dithiin-2,3-dicarbonitrile]
Septoria tritici; 0.125 ppm
  Observed effect (%): 35%

## ethyl phosphonate aluminum [fosethyl-Al II-12]
Pyricularia oryzae
  Observed effect (%): 8%

## CCNc1nc(CC)c(C(=O)NC(C#N)c2cccs2)s1 (centres unmarked) [ethaboxam I, N-(cyano-2-thienylmethyl)-4-ethyl-2-(ethylamino)-5-thiazolecarboxamide]
Pyricularia oryzae; 0.125 ppm
  Observed effect (%): 0%
Pyricularia oryzae; 0.25 ppm
  Observed effect (%): 0%
Pyricularia oryzae; 8 ppm
  Observed effect (%): 18%
Pyricularia oryzae; 16 ppm
  Observed effect (%): 41%
Pyricularia oryzae; 63 ppm
  Observed effect (%): 56%
Plasmopara viticola [2]; 1 ppm
  Observed effect (%): 61%
Septoria tritici; 0.125 ppm
  Observed effect (%): 0%
Septoria tritici; 4 ppm
  Observed effect (%): 0%
Septoria tritici; 16 ppm
  Observed effect (%): 0%
Botrytis cinerea; 1 ppm
  Observed effect (%): 0%
Botrytis cinerea; 2 ppm
  Observed effect (%): 0%
Botrytis cinerea; 4 ppm
  Observed effect (%): 0%
Botrytis cinerea; 32 ppm
  Observed effect (%): 0%
Botrytis cinerea; 63 ppm
  Observed effect (%): 11%
Plasmopara viticola [1]; 1 ppm
  Observed effect (%): 0%
Plasmopara viticola [1]; 4 ppm
  Observed effect (%): 22%
Plasmopara viticola [1]; 16 ppm
  Observed effect (%): 44%
Phytophthora infestans; 16 ppm
  Observed effect (%): 33%

## COC(=O)N(OC)c1ccccc1COc1ccn(-c2ccc(Cl)cc2)n1 [pyraclostrobin II-6, methyl N-{2-[1-(4-chlorophenyl)-1H-pyrazol-3-yloxymethyl]phenyl}(N-methoxy)carbamate]
Botrytis cinerea; 0.5 ppm
  Observed effect (%): 22%

## CC1(c2ccc(Oc3ccccc3)cc2)OC(=O)N(Nc2ccccc2)C1=O (racemic) [famoxadone II-11, (RS)-3-anilino-5-methyl-5-(4-phenoxyphenyl)-1,3-oxazolidine-2,4-dione]
Pyricularia oryzae; 0.5 ppm
  Observed effect (%): 64%
